Our source for the EC50 values is patent US20110171172A1, “COMPOUNDS FOR INHIBITING KSP KINESIN ACTIVITY” (priority 2007, published 2011).

For this assay, the system named is HCT116 colon cancer cells. Description: KSP cellular assay (phospho-histone H3 / MPM2 immunofluorescence). The format is cell-based. As to conditions: Homo sapiens, HCT-116, 16 hours with drug, percent of cells staining positive for Phos-Histone H3 (ser10) / Phos-MPM2. The procedure:
HCT116 colon cancer cells were grown in DMEM:F12 media with 10% heat inactivated FBS at 37 degrees with 5% CO2. Cells were plated at 7,500 cells per well in PDL coated 384-well tissue culture plates. 6 hours later media was removed and new media containing drug was added. Cells were incubated with drug for 16 hours. All further steps were performed at room temperature in the dark. Cells were fixed with 25 ul/well Prefer fixation solution plus 250 nM Hoechst dye and incubated for 30 minutes. The fixation solution was removed and cells were washed with PBS. Cells were then permeabilized with 25 uliwell 0.2% Triton-X in PBS and incubated for 10 minutes. Cells were washed with PBS and then incubated with 25 ul/well PBS containing 3% FBS for 30 minutes. Cells were then stained overnight at 4 degrees with 25 uliwell antibody solution in PBS plus 3% FBS. Antibodies used were Phos-Histone H3 (ser10)-Alexa Flur 488 Conjugate and Phos-MPM2 Texas Red Conjugate. Cells were washed with PBS and then immunofluorescence images captured with HT Pathway microscope. The percent of cells staining positive was calculated and EC50 values for the compounds of the invention that were tested were determined using Excel XLfit.
EC50 Determinations: Dose-response curves were plotted from inhibition data generated each in duplicate, from 8 point serial dilutions of inhibitory compounds. Concentration of compound was plotted against enzyme activity (OD reading). To generate EC50 values, the dose-response curves were then fitted to a standard sigmoidal curve and EC50 values were derived by nonlinear regression analysis.
Usually EC50 stands for the concentration at which the effect is half-maximal. Take `CC(=O)N1N=C(c2cc(F)ccc2F)OC12CCOc1ccccc12` (centres unmarked) [compound 105]: the EC50 was above 1000 nM.

For the molecule `CC(=O)N1N=C(c2cc(F)ccc2F)OC12CCCc1ccccc12` (centres unmarked) [compound 103], the EC50 is above 1000 nM.

Molecule `CC(=O)N1N=C(c2cc(F)ccc2F)OC12CCSc1ccccc12` (centres unmarked) [compound 102] registered an EC50 above 1000 nM.

The molecule `CC(=O)N1N=C(c2cc(F)ccc2F)OC12CCCc1sccc12` (centres unmarked) [compound 101] registered an EC50 above 1000 nM.

Molecule `CC(=O)N1N=C(c2cc(F)ccc2F)OC12COc1ccccc12` (centres unmarked) [compound 104] returned an EC50 above 1000 nM.
